Results taken from PubChem BioAssay AID1419 (Emory University Molecular Libraries Screening Center, 2008).
pIC50: −log10 of the molar value. Activity calls are given as the source filed them. No rule for the calls is given here.

Assay: blockers of an Epstein-Barr virus protein-peptide interaction – biochemical, fluorescence polarization, dose response (AID 1419)
Conditions: cell-free protein-peptide binding, 2 h; for fold change: measured here: P channel fold over control, at 54 µM

| SMILES | IC50 | fold change | pIC50 |
| --- | --- | --- | --- |
| Cc1cc(N(CCCl)CCCl)ccc1/C=N/NC(=O)c1ccco1 | > 54 µM (inactive) | 1.06 |  |
| O=Cc1cnc(N2CCCCC2)s1 | > 54 µM (inactive) | 1.06 |  |
| CCN1C(=O)/C(=C\c2ccc(-c3ccc([N+](=O)[O-])cc3OC)o2)SC1=Nc1cccc(C(=O)O)c1 | > 54 µM (inactive) | 0.573 |  |
| Cc1nn(C)c(C)c1CN(C)C(=O)C1c2ccccc2Oc2ccccc21 |  | 4.27 | 5.42 |
| Fc1ccccc1/C=N/Nc1ncnc2nc[nH]c12 | > 54 µM (inactive) | 1.17 |  |
| Cc1nn(C)c(C)c1N1C(=O)c2cccc3c(N)ccc(c23)C1=O |  | 203 | > 6.38 |
| O=c1ccc2[n+]([O-])c3ccc(O)cc3oc-2c1 |  | 5.06 | 5.87 |
| COc1cc([N+](=O)[O-])ccc1-c1ccc(/C=N/NC(=O)c2ccccc2O)o1 | > 54 µM (inactive) | 0.5 |  |
| CC(=O)Nc1ccc(N2CCc3c(C)c(C#N)c4nc5ccccc5n4c32)cc1 | > 54 µM (inactive) | 3.39 |  |
| COC(=O)c1c(Cl)c2n3ccccc3c(C)c(-c3ccccc3)c-2c1C(=O)OC |  | 2.2 | 5.62 |
| O=C(Nc1ccncc1)Nc1ccc(F)cc1F | > 54 µM (inactive) | 1.04 |  |
| CCOC(=O)c1c(/N=C/c2c(O)n(-c3ccccc3F)c(=S)[nH]c2=O)sc2c1CCCC2 |  | 29.6 | 5.53 |
| Cn1cc(Cl)c(C(=O)Nc2nc3ccc([N+](=O)[O-])cc3s2)n1 | > 54 µM (inactive) | 0.983 |  |
| COC(OC)c1ccnc(-c2ccc(OC(=O)c3cccs3)cc2)n1 | > 54 µM (inactive) | 0.937 |  |
| CCN(CC)CCN1C(=O)c2cccc3cc(N)cc(c23)C1=O |  | 3.91 | 5.47 |
| CCCCCC(=O)N/N=C/c1ccc(N(C)C)cc1 | > 54 µM (inactive) | 1.05 |  |
| COc1ccc(CCNC(=O)COc2nsnc2N2CCOCC2)cc1OC | > 54 µM (inactive) | 1.22 |  |
| Cc1cc(N2CCCC2)ccc1C=C(C#N)C#N |  | 15.3 | 5.73 |
| Cc1n[nH]c(C)c1N1C(=O)c2cccc3c(N4CCCCCC4)ccc(c23)C1=O |  | 88.6 | > 6.38 |
| CN(C)c1ccc(/C=C(\C#N)C(=O)Nc2nc3c(s2)CCN(Cc2ccccc2)C3)cc1 |  | 19.9 | 5.92 |
| CC(=O)c1ccc(Nc2c3c(nc4ccccc24)CCCC3)cc1 | > 54 µM (inactive) | 0.95 |  |

| SMILES | IC50 | fold change | pIC50 |
| --- | --- | --- | --- |
| Clc1ccc(OCc2nnc(-c3ccccc3Br)o2)c(Cl)c1 | > 54 µM (inactive) | 1 |  |
| Cc1ccc(C2C(C(=O)c3ccco3)=C(O)C(=O)N2c2nnc(C)s2)cc1 (configuration not stated) | > 54 µM (inactive) | 1.75 |  |
| CCCCn1nc(-c2ccccc2)c2nc3ccccc3nc21 |  | 22.6 | 5.50 |
| CCCN1C(=O)/C(=C/C=C2\N(CC)c3ccccc3C2(C)C)SC1=S |  | 12 | 6.02 |
| COc1cc2c(cc1OC)-c1cc3ccc4c(c3c[n+]1CC2)OCO4 |  | 11.6 | > 6.38 |
| O=c1c(/C=N/Nc2ccccc2)c(Sc2nnnn2-c2ccccc2)nc2ccccn12 |  | 37.5 | 5.33 |
| C=CCOc1cccc(C2C(C(=O)c3ccc(C)o3)=C(O)C(=O)N2c2nccs2)c1 (configuration not stated) |  | 4.84 | > 6.38 |
| COc1ccc(-c2nnc(-c3cc4c(ccc5ccccc54)oc3=O)o2)cc1 |  | 4.21 | 4.89 |
| CCSc1nnc(NC(=O)C(C(F)(F)F)C(F)(F)F)s1 | > 54 µM (inactive) | 0.583 |  |
| O=C1/C(=N\S(=O)(=O)c2cccs2)C([n+]2cccc(Cc3ccccc3)c2)=C([O-])c2ccccc21 |  | 13.9 | 5.12 |
| S=C(Nc1ccc2nc(-c3ccccn3)c(-c3ccccn3)nc2c1)N1CCCCC1 | > 54 µM (inactive) | 1.3 |  |
| CCN(CC)C(=O)CSc1nnc2nnc3cc(OC)ccc3n12 |  | 7.06 | > 6.38 |
| O=C1CCN2C=Nc3cccc4ccc1c2c34 |  | 171 | > 6.38 |
| CCSc1nnc(-c2sc3nnc(-c4ccccc4)c(-c4ccccc4)c3c2N)o1 |  | 36.9 | 5.66 |
| Cc1nn(-c2ccccc2)c2c1C(c1ccccc1)C(C#N)=C(N)O2 (configuration not stated) | > 54 µM (inactive) | 1.01 |  |
| Cn1cc(/C=C2\SC(=S)N(NC(=O)c3ccccc3)C2=O)c2ccccc21 | > 54 µM (inactive) | 5.3 |  |
| COC(=O)c1cc2c(-c3ccccc3)c(C)c3ccccn3c-2c1C(=O)OC |  | 1.47 | 5.00 |
| CCOc1cc(-c2ccc(N)c(OCC)c2)ccc1N |  | 5.61 | 5.82 |
| CC1(C)CC(=O)C2=C(C1)OC(N)=C(C#N)C2c1cc2c(cc1[N+](=O)[O-])OCO2 (configuration not stated) |  | 3.34 | 5.69 |
| O=C(Nc1ccc2[nH]c3c(c2c1)CCCC3)c1ccco1 |  | 2.83 | 4.55 |
